According to the OligoGym collection:
Oligonucleotides are given in HELM: sugar(base)linkage, 5' to 3'; d 2'-deoxyribose, r ribose, m 2'-O-methylribose, p phosphate. ss, as = sense and antisense strand

Biological target: UBE2N
Test: reporter assay of Huesken 2005
Conditions: siRNA
Further: test concentration or dose not given here.

Substance	normalised inhibition (eCFP-eYFP dual reporter) [%]
RNA1{r(A)p.r(C)p.r(G)p.r(C)p.r(C)p.r(C)p.r(G)p.r(U)p.r(U)p.r(A)p.r(U)p.r(U)p.r(U)p.r(U)p.r(C)p.r(A)p.r(U)p.r(G)p.r(U)p.d(T)p.d(T)}|RNA2{r(A)p.r(C)p.r(A)p.r(U)p.r(G)p.r(A)p.r(A)p.r(A)p.r(A)p.r(U)p.r(A)p.r(A)p.r(C)p.r(G)p.r(G)p.r(G)p.r(C)p.r(G)p.r(U)p.d(T)p.d(G)}$$$RNA1{StrandType:ss}|RNA2{StrandType:as}$	62.4
RNA1{r(A)p.r(C)p.r(G)p.r(U)p.r(U)p.r(U)p.r(C)p.r(A)p.r(U)p.r(G)p.r(A)p.r(C)p.r(C)p.r(A)p.r(A)p.r(A)p.r(A)p.r(U)p.r(U)p.d(T)p.d(T)}|RNA2{r(A)p.r(A)p.r(U)p.r(U)p.r(U)p.r(U)p.r(G)p.r(G)p.r(U)p.r(C)p.r(A)p.r(U)p.r(G)p.r(A)p.r(A)p.r(A)p.r(C)p.r(G)p.r(U)p.d(A)p.d(C)}$$$RNA1{StrandType:ss}|RNA2{StrandType:as}$	92.1
RNA1{r(A)p.r(C)p.r(U)p.r(U)p.r(G)p.r(A)p.r(A)p.r(C)p.r(U)p.r(A)p.r(U)p.r(U)p.r(C)p.r(C)p.r(U)p.r(U)p.r(C)p.r(C)p.r(A)p.d(T)p.d(T)}|RNA2{r(U)p.r(G)p.r(G)p.r(A)p.r(A)p.r(G)p.r(G)p.r(A)p.r(A)p.r(U)p.r(A)p.r(G)p.r(U)p.r(U)p.r(C)p.r(A)p.r(A)p.r(G)p.r(U)p.d(T)p.d(T)}$$$RNA1{StrandType:ss}|RNA2{StrandType:as}$	96.1
RNA1{r(A)p.r(G)p.r(A)p.r(A)p.r(C)p.r(C)p.r(A)p.r(G)p.r(U)p.r(U)p.r(C)p.r(C)p.r(U)p.r(G)p.r(G)p.r(C)p.r(A)p.r(U)p.r(C)p.d(T)p.d(T)}|RNA2{r(G)p.r(A)p.r(U)p.r(G)p.r(C)p.r(C)p.r(A)p.r(G)p.r(G)p.r(A)p.r(A)p.r(C)p.r(U)p.r(G)p.r(G)p.r(U)p.r(U)p.r(C)p.r(U)p.d(G)p.d(C)}$$$RNA1{StrandType:ss}|RNA2{StrandType:as}$	60.7
RNA1{r(A)p.r(G)p.r(A)p.r(A)p.r(U)p.r(A)p.r(C)p.r(C)p.r(C)p.r(A)p.r(A)p.r(U)p.r(G)p.r(G)p.r(C)p.r(A)p.r(G)p.r(C)p.r(C)p.d(T)p.d(T)}|RNA2{r(G)p.r(G)p.r(C)p.r(U)p.r(G)p.r(C)p.r(C)p.r(A)p.r(U)p.r(U)p.r(G)p.r(G)p.r(G)p.r(U)p.r(A)p.r(U)p.r(U)p.r(C)p.r(U)p.d(T)p.d(C)}$$$RNA1{StrandType:ss}|RNA2{StrandType:as}$	44.7
RNA1{r(A)p.r(G)p.r(A)p.r(U)p.r(A)p.r(U)p.r(U)p.r(U)p.r(U)p.r(G)p.r(A)p.r(A)p.r(A)p.r(G)p.r(A)p.r(U)p.r(A)p.r(A)p.r(G)p.d(T)p.d(T)}|RNA2{r(C)p.r(U)p.r(U)p.r(A)p.r(U)p.r(C)p.r(U)p.r(U)p.r(U)p.r(C)p.r(A)p.r(A)p.r(A)p.r(A)p.r(U)p.r(A)p.r(U)p.r(C)p.r(U)p.d(A)p.d(G)}$$$RNA1{StrandType:ss}|RNA2{StrandType:as}$	57.1
RNA1{r(A)p.r(G)p.r(C)p.r(C)p.r(C)p.r(A)p.r(A)p.r(G)p.r(C)p.r(C)p.r(A)p.r(U)p.r(A)p.r(G)p.r(A)p.r(A)p.r(A)p.r(C)p.r(A)p.d(T)p.d(T)}|RNA2{r(U)p.r(G)p.r(U)p.r(U)p.r(U)p.r(C)p.r(U)p.r(A)p.r(U)p.r(G)p.r(G)p.r(C)p.r(U)p.r(U)p.r(G)p.r(G)p.r(G)p.r(C)p.r(U)p.d(T)p.d(C)}$$$RNA1{StrandType:ss}|RNA2{StrandType:as}$	91.7
RNA1{r(A)p.r(G)p.r(C)p.r(G)p.r(G)p.r(A)p.r(G)p.r(C)p.r(A)p.r(G)p.r(U)p.r(G)p.r(G)p.r(A)p.r(A)p.r(G)p.r(A)p.r(C)p.r(C)p.d(T)p.d(T)}|RNA2{r(G)p.r(G)p.r(U)p.r(C)p.r(U)p.r(U)p.r(C)p.r(C)p.r(A)p.r(C)p.r(U)p.r(G)p.r(C)p.r(U)p.r(C)p.r(C)p.r(G)p.r(C)p.r(U)p.d(A)p.d(C)}$$$RNA1{StrandType:ss}|RNA2{StrandType:as}$	43.9
